Literature values, collected in patent publication US9399652B2, “Synthetic route to pactamycin and pactamycin analogs” (The University of North Carolina at Chapel Hill, priority 2013, dated 2016).

Conditions: literature value (ref. 11); cell line not given; read-out: cytotoxicity (IC50)

For `CC(=O)c1cccc(N[C@H]2[C@H](N)[C@@](NC(=O)N(C)C)([C@H](C)O)[C@@](C)(O)[C@@]2(O)COC(=O)c2c(C)cccc2O)c1` [Pactamycin], the IC50 is given as 95 nM.
